The values below come from patent US20220143035A1, “METHODS FOR TREATING AUTOIMMUNE OR AUTOINFLAMMATORY DISEASE” (UNIVERSITY OF WASHINGTON, priority 2019, published 2022).

Holding throughout (format): cell-based, human
In test [1] the test system is IRF3 S386 phosphorylation. The test can be described thus: Western blot of IRF3 pS386 in HEK 293 cells after DNA damage or stress agents. As to conditions: STING KO HEK 293 cells, up to 12 hours; 50 μM Etoposide, 500 nM Thapsigargin.
For test [2], the system named is endoplasmic reticulum (ER) stress response. The test can be described thus: Endoplasmic reticulum stress response in HEK 293 cells. The note with it: 500 nM Thapsigargin, control.
Test [3] has as its system histone H2AX on serine 139 (γ-H2AX). The test can be described thus: Western blot of γ-H2AX phosphorylation in CT DNA-treated STING KO U937 cells. As to conditions: PMA-differentiated STING KO U937 cells, CT DNA 16 hours; Ku-60019 0.125-1 μM, Nu-7441 0.25-2 μM; FIG. 4A. The procedure:
(§1) FIG. 4A-K: Human DNA-PK is essential for the SIDSP. (A) PMA-differentiated STING KO U937 cells were treated with CT DNA for 16 hours in the presence of DMSO control, increasing concentrations of Ku-60019 ATM inhibitor [0.125, 0.25, 0.5, 1 μM], or Nu-7441 DNA-PK inhibitor [0.25, 0.5, 1, 2 μM], followed by western blot analysis of γ-H2AX phosphorylation. (B) PMA-differentiated STING KO U937 cells were treated with CT DNA for 16 hours in the presence of inhibitors as described in (A), followed by RT-qPCR analysis of IFNB1 mRNA expression. n.s.: not significant; ***:p<0.001. n=3 independent treatments per condition. (C) PMA-differentiated STING KO U937 cells were treated with CT DNA or RIG-I ligand in the presence of DMSO or Nu-7441 for 16 hours, followed by RT-qPCR analysis of IFNB1 mRNA expression. n.s.: not significant; ***:p<0.001. n=3 independent treatments per condition. […] (F) Primary human foreskin fibroblasts (HFF) and primary human hepatocytes from male (♂) and female (♀) donors were assessed for cGAS, STING, and DNA-PK proteins by fractionation into cytosol (C) and nuclear (N) extracts, followed by western blot. […] Multiple t-tests with significance determined by the Holm-Sidak method were used to compare IFNB1 in DMSO versus Nu7441 treated cells. *:p<0.05, ****:P<.0001. n=3 independent treatments per condition. […]

Test [4] deals with STING-independent DNA sensing pathway (SIDSP). Kind of test: RT-qPCR of IFNB1 mRNA in CT DNA-treated STING KO U937 cells. The note with it: PMA-differentiated STING KO U937 cells, CT DNA 16 hours; for SIDSP activation (IFNB1 mRNA expression): Ku-60019 0.125-1 μM, Nu-7441 0.25-2 μM, FIG. 4B. The procedure:
FIG. 4A-K: Human DNA-PK is essential for the SIDSP. (A) PMA-differentiated STING KO U937 cells were treated with CT DNA for 16 hours in the presence of DMSO control, increasing concentrations of Ku-60019 ATM inhibitor [0.125, 0.25, 0.5, 1 μM], or Nu-7441 DNA-PK inhibitor [0.25, 0.5, 1, 2 μM], followed by western blot analysis of γ-H2AX phosphorylation. (B) PMA-differentiated STING KO U937 cells were treated with CT DNA for 16 hours in the presence of inhibitors as described in (A), followed by RT-qPCR analysis of IFNB1 mRNA expression. n.s.: not significant; ***:p<0.001. n=3 independent treatments per condition. (C) PMA-differentiated STING KO U937 cells were treated with CT DNA or RIG-I ligand in the presence of DMSO or Nu-7441 for 16 hours, followed by RT-qPCR analysis of IFNB1 mRNA expression. n.s.: not significant; ***:p<0.001. n=3 independent treatments per condition. (D) Western blot analysis of DNA-PK and STING in clonal lines of H1 control, STING KO and STING/DNA-PK DKO U937 cells. (E) PMA-differentiated STING KO and STING/DNA-PK DKO U937 cells were treated with CT DNA for 16 hours in DMSO or 2 μM Nu-7441, followed by RT-qPCR analysis of IFNB1 mRNA expression, normalized to Lipo control-treated cells. **:p<0.01. n=3 independent treatments per condition. (F) Primary human foreskin fibroblasts (HFF) and primary human hepatocytes from male (♂) and female (♀) donors were assessed for cGAS, STING, and DNA-PK proteins by fractionation into cytosol (C) and nuclear (N) extracts, followed by western blot. The nuclear extract was treated with salt-active nuclease to remove genomic DNA. (G) The indicated cell lines were stimulated with cGAMP for 16 hours before harvest and RT-qPCR analysis of IFNB1 mRNA expression. […] Multiple t-tests with significance determined by the Holm-Sidak method were used to compare IFNB1 in DMSO versus Nu7441 treated cells. *:p<0.05, ****:P<.0001. n=3 independent treatments per condition. […]

Test [5] concerns RNA-activated RIG-I-MAVS pathway. Kind of test: RT-qPCR of IFNB1 mRNA in RIG-I ligand-treated STING KO U937 cells. As to conditions: PMA-differentiated STING KO U937 cells, RIG-I ligand 16 hours, DMSO or Nu-7441; FIG. 4C. As to the method: as §1
The subject of test [6] is WT U937 cells. Kind of test: Global mRNA-Seq analysis in WT (H1 control) U937 cells. The text has this: FIG. 5A-F: The DNA-PK SIDSP activates a broad gene expression program. (A) Heat map representation of log 2 Fold Change in gene expression for the 124 antiviral response genes with significant differential expression in one of the four comparisons. The key includes a histogram in cyan plotting the distribution of log 2 Fold Change values for all the included genes. Data represent the average of three independent treatments per condition. […] Data represent the average of three independent treatments per condition. […] Data represent the average of three independent treatments per condition. (D) In H1 control U937 cells, the 16 hour CT DNA-activated log 2 Fold Change was plotted for DMSO control-treated cells on the x-axis and for Nu-7441-treated cells on the y-axis. Each dot represents a single gene that was differentially expressed at 16 hours in DMSO-treated cells (n=1024). […]
FIG. 8A-E: Normalized mRNA-Seq data comparing WT and STING KO U937 cells. (A) Boxplot depicting normalized read counts in log 2CPM format across all 36 samples. […] (C) Normalized read counts in log 2CPM format, comparing Lipo-treated WT U937 cells to Lipo-treated STING KO U937 cells. (D) Normalized read counts in log 2CPM format, comparing Lipo-treated WT U937 cells pretreated with DMSO or 2 μM N-7441. (E) Normalized read counts in log 2CPM format, comparing Lipo-treated STING KO cells pretreated with DMSO or 2 μM N-7441. […]

Test [7] deals with STING KO U937 cells (DNA-PK SIDSP). Kind of test: Global mRNA-Seq analysis in STING KO U937 cells.
Source text: (A) Heat map representation of log 2 Fold Change in gene expression for the 124 antiviral response genes with significant differential expression in one of the four comparisons. The key includes a histogram in cyan plotting the distribution of log 2 Fold Change values for all the included genes. Data represent the average of three independent treatments per condition. […] Data represent the average of three independent treatments per condition. […] Data represent the average of three independent treatments per condition. (D) In H1 control U937 cells, the 16 hour CT DNA-activated log 2 Fold Change was plotted for DMSO control-treated cells on the x-axis and for Nu-7441-treated cells on the y-axis. Each dot represents a single gene that was differentially expressed at 16 hours in DMSO-treated cells (n=1024). […] A Wilcoxon matched pairs signed rank test was used to determine the p-value between DMSO control and Nu-7441-treated samples after DNA stimulation. Data represent the average of three independent treatments per condition. […]
Total RNA was added directly to lysis buffer from the SMART-Seq v4 Ultra Low Input RNA Kit for Sequencing (Takara), and reverse transcription was performed followed by PCR amplification to generate full length amplified cDNA. […] Libraries were pooled and quantified using a Qubit® Fluorometer (Life Technologies). Dual-index, single-read sequencing of pooled libraries was carried out on a HiSeq2500 sequencer (Illumina) with 58-base reads, using HiSeq™ v4 Cluster and SBS kits (IIlumina) with a target depth of 5 million reads per sample.

Regarding `C/C=C(/C)C(=O)O[C@H]1C(C)=C2[C@H]([C@@H]1OC(=O)CCCCCCC)[C@@](C)(OC(C)=O)C[C@H](OC(=O)CCC)[C@@]1(O)[C@H]2OC(=O)[C@@]1(C)O` [thapsigargin], the “activation of IRF3 phosphorylation” value in test [1] was “but not IRF3, HSPA8, or H2AX phosphorylation”. Moreover, the “endoplasmic reticulum (ER) stress response” value in test [2] is recorded as “induced a potent endoplasmic reticulum (ER) stress response”.

For the compound `C[C@@H]1CN(CC(=O)Nc2ccc3c(c2)Cc2cccc(-c4cc(=O)cc(N5CCOCC5)o4)c2S3)C[C@H](C)O1` [Ku-60019], in test [3], the “DNA-activated phosphorylation of the histone H2AX on serine 139 (γ-H2AX)” value was “reduced the DNA-activated phosphorylation of the histone H2AX on serine 139 (γ-H2AX) in a concentration-dependent manner”. Also, the “SIDSP activation (IFNB1 mRNA expression)” value in test [4] was “unaffected”.

In the case of `O=c1cc(N2CCOCC2)oc2c(-c3cccc4c3sc3ccccc34)cccc12` [Nu-7441, 8-(dibenzo[b,d]thiophen-4-yl)-2-morpholino-4H-chromen-4-one], the “DNA-activated phosphorylation of the histone H2AX on serine 139 (γ-H2AX)” value in test [3] is recorded as “reduced the DNA-activated phosphorylation of the histone H2AX on serine 139 (γ-H2AX) in a concentration-dependent manner”. Further, the “RNA-activated RIG-I-MAVS pathway (IFNB1 mRNA expression)” value in test [5] was “had no effect”. In addition, in test [6] (16 hours post DNA transfection, 2 μM Nu-7441 vs vehicle, 718/1024 genes, FIG. 5D), the “differentially expressed genes on which the inhibitor had a (mild) inhibitory effect” value is on record as 70.1%. The “effect on gene expression in the absence of DNA stimulation” value in test [6] (Lipo-treated, 2 μM, FIG. 8D) is “no significant effect”; in test [7] (STING KO U937 cells, Lipo-treated, 2 μM, FIG. 8E), “no significant effect”. In test [4] (DMSO or Nu-7441, FIG. 4C), the “DNA-activated antiviral response (IFNB1 mRNA expression)” value is “blocked the DNA-activated antiviral response”. The “SIDSP activation (IFNB1 mRNA expression)” value in test [4] is reported as “potently blocked”. In addition, the “differentially expressed genes on which the inhibitor had an inhibitory effect” value in test [7] (STING KO U937 cells, 16 hours post DNA transfection, 2 μM Nu-7441 vs vehicle, 1254/1327 genes, up- and downregulated, FIG. 5E) was determined as 94.5%. Further, the “gene expression triggered by the SIDSP” value in test [7] (summary statement in discussion) is given as “potently reduced nearly all gene expression”.
